In patent US4072810A, “Coupled peroxides” (priority 1973, dated 1978):
Where two headings read alike, the source gives them in different places.

Experiments:
[1] = Crosslinking of polyethylene (Table I, xylene solvent extraction); conditions: for % Crosslinking: 30 minutes; for efficiency as crosslinking agent: in words, see Table I
Experimental: A mixture of the desired polymeric material and 0.01 mole of the difunctional coupled compound is blended together on a standard roll mill, such as used in the rubber industry. […]
The slabs are permitted to cool down and mature at room temperature for 24 hours. The mature slabs were then cut into dumbell shaped samples and tested for tensile strength on an Instron Tensile Tester, following ASTM procedure as described in D412-61T "Tension Testing of Vulcanized Rubber" or the crosslinking in the case of polyethylene is determined by the solvent extraction procedure. In addition to the polymer-peroxide mixture, the crosslinkable mixture, may contain co-agents such as sulfur, promoters, fillers, and reinforcing materials. Desirable fillers are carbon black, titanium dioxide, calcium silicate and alkaline earth metal carbonates.
In Table I the crosslinking ability of the coupled compounds of our invention in polyethylene are compared to a hydroxy-containing peroxide and to difunctional peroxides. Tables II, III, and IV show the versatility of the product of our invention in urethane rubber, ethylene-propylene rubber and silicone rubber.
The polyethylene used for this test was a low density polyethylene
Bakelite DYNH-1, having the following physical properties:
The crosslinking test was carried out at 340° and 375° F.
(1) The percentage crosslinking was determined by extraction of the
crosslinked sample with refluxing xylene. In all cases the polyethylene
charge was 100% extractable before crosslinking.
(2) Based on number of active oxygens per mole.

[2] = Half-life of coupled and uncoupled hydroxy-peroxides in benzene; format: physicochemical; conditions: for t1/2: benzene, 0.1 molar, 100000 µM; for half-life relative to the hydroxy containing peroxide precursors: in words, see Example XVI
From the text: Half-Life Comparisons of Coupled and Uncoupled Hydroxy-Peroxides (Carried out in Benzene at 0.1 molar concentrations)

[3] = S.P.I. exotherm, curing an unsaturated polyester-styrene resin (Table V); conditions: 1% concentration; for Cure Time / Gel Time: 115° C.; for Peak: exotherm at 115° C.
Experimental: An unsaturated polyester resin was made by reacting maleic anhydride (1.0 mole), phthalic anhydride (1.0 mole), and propylene glycol (2.2 mole) until an acid number of 45-50 was obtained. To this was added hydroquinone at a 0.013% concentration. Seven parts of this unsaturated polyester was diluted with 3 parts of monomeric styrene to obtain a homogeneous blend having a viscosity of 13.08 poise and a specific gravity of 1.14. To 20 g. of this blend was added the 0.2 g. of the desired coupled peroxide and the resulting composition placed in a constant temperature bath at 115° C.
The internal temperature was recorded as function of time. The following results were obtained with some of the coupled compounds (Table V):
S.P.I. EXOTHERM AT 115° C. AND 1% CONCENTRATION
IN POLYESTER RESIN PREPARED IN EXAMPLE VIII

[4] = Initiation of vinyl monomer (styrene) polymerization
Experimental: This example illustrates the use of coupled peroxides of present disclosures as initiators of vinyl monomer polymerization. Compound [B] (from Example V) at a concentration of 5 × 10^-4 moles per deciliter of styrene, polymerized styrene at 100° C. at a rate of 6.20 × 10^-3 moles per liter per minute. When no initiator is present, the thermal polymerization of styrene at 100° C. proceeds at a rate of 2.82 × 10^-3 moles per liter per minute. Compound [A] (from Examples I, II, and III) at a concentration of 5 × 10^-4 moles per diciliter of styrene polymerized styrene 1.65 faster at 115° C. than the thermal polymerization rate when no polymerization initiator is present.

[5] = in words; milling step; cited from earlier work
[6] = Volatility and thermal stability of peroxides (in words); format: physicochemical
From the text: Some of the desirable properties that a peroxide has to have to be useful for crosslinking polyethylene are: low volatility, high thermal stability, and good efficiency with respect to its active oxygen content.
The volatility and the thermal stability are necessary requisites, since the peroxide has to tolerate the high temperatures of the milling operation, which is a necessary step to incorporate the peroxide with the polymer before the crosslinking process. If the peroxide is too volatile (as in the case of di-t-butyl peroxide) there would not be any peroxide left for the crosslinking process at the end of the milling step. If the peroxide is not volatile, but its thermal stability is low, a premature decomposition of the peroxide will take place during the milling step, which results in a premature crosslinking of the polymer. If this happens, the polymer cannot be shaped or formed any further since the thermoplastic polymer has become thermoset too soon.

Row | Compound | % Crosslinking ([1]; 340° F., 0.010 molar equivs.) [%] | % Crosslinking ([1]; 340° F., 0.015 molar equivs.) [%] | % Crosslinking ([1]; 375° F., 0.010 molar equivs.) [%] | % Crosslinking ([1]; 375° F., 0.015 molar equivs.) [%] | efficiency as crosslinking agent [1] | Cure Time [3] [min] | Gel Time [3] [min] | Peak [3] [° F] | other results
1 | CC(C)(C)OOC(C)(C)C#CC(C)(C)OOC(C)(C)C [2,5-dimethyl-2,5-di(t-butylperoxy)-hexyne-3] | 81.8 | 86.0 | 84.9 | 87.7 | not as efficient in utilizing their active oxygen content as the difunctional peroxide of our invention | – | – | – | –
2 | CC(CC(C)(C)OOC(C)(C)C)OC(=O)OC(C)CC(C)(C)OOC(C)(C)C (stereo not drawn) [Di[1,3-dimethyl-3-(t-butylperoxy)butyl] carbonate] | 89.3 | – | 89.7 | – | – | 11.1 | 9.5 | 455 | t1/2 ([2]; 115° C.): 26.8 h; half-life relative to the hydroxy containing peroxide precursors [2]: almost double; styrene polymerization, faster than the thermal polymerization rate when no initiator is present ([4]; 115° C., 5 × 10^-4 moles per diciliter of styrene): 1.65
3 | CC(C)(C)OOC(C)(C)C [di-t-butyl peroxide] | – | – | – | – | – | – | – | – | volatility [5]: too volatile
4 | CC(CC(C)(C)OOC(C)(C)C)OC(=O)CCC(=O)OC(C)CC(C)(C)OOC(C)(C)C (stereo not drawn) [Di[1,3-dimethyl-3-(t-butylperoxy)butyl]succinate] | 88.9 | – | 89.2 | – | – | – | – | – | –
5 | CC(C)(C)OOC(C)(C)CCC(C)(C)OOC(C)(C)C [2,5-dimethyl-2,5-di(t-butylperoxy)-hexane] | 85.9 | 89.3 | 84.5 | 88.0 | not as efficient in utilizing their active oxygen content as the difunctional peroxide of our invention | – | – | – | –
6 | CC(CC(C)(C)OOC(C)(C)C)OC(=O)OCCOC(=O)OC(C)CC(C)(C)OOC(C)(C)C (stereo not drawn) [Ethylene Bis[1,3-dimethyl-3-(t-butylperoxy)-butyl carbonate]] | 87.9 | – | 87.4 | – | – | 12.8 | 10.8 | 450 | –
7 | CC(C)(C)OOC(=O)CCOC(=O)OCCC(=O)OOC(C)(C)C [Di[2-(t-butylperoxycarbonyl)ethyl]carbonate] | – | – | – | – | – | 8.5 | 7.1 | 450 | t1/2 ([2]; 100° C.): 30.7 h; half-life relative to the hydroxy containing peroxide precursors [2]: almost double; rate of styrene polymerization ([4]; 100° C., 5 × 10^-4 moles per deciliter of styrene): 6.20 × 10^-3 moles per liter per minute
8 | CC(O)CC(C)(C)OOC(C)(C)C (stereo not drawn) [2-Methyl-2-(t-butylperoxy)-4-pentanol] | – | 78.4 | – | 75.4 | poor | – | – | – | t1/2 ([2]; 115° C.): 13.6 h; thermal stability [6]: good; volatility [6]: low
9 | CC(C)(C)OOC(=O)CCO [t-butylperoxy 3-hydroxypropionate, reference compound] | – | – | – | – | – | – | – | – | t1/2 ([2]; 100° C.): 13.0 h
